Laboratory results: patent publication US20060074243A1, “Hydroxamic acid and amide compounds and their use as protease inhibitors” (Pharmacia Corporation, priority 2002, published 2006)

Legend:
Test in all cases: In vitro MMP inhibition analysis (fluorogenic peptide substrate cleavage), Ki
Type in all cases: biochemical
Settings in all cases: Table 1
Human recombinant MMP-1 = target: T1, Human recombinant MMP-1 (Homo sapiens, UniProt P03956)
T1 construct: made in house; host or cells: MMP-1-transfected HT-1080 cells (spent media)
T1 sequence (P03956 100-469): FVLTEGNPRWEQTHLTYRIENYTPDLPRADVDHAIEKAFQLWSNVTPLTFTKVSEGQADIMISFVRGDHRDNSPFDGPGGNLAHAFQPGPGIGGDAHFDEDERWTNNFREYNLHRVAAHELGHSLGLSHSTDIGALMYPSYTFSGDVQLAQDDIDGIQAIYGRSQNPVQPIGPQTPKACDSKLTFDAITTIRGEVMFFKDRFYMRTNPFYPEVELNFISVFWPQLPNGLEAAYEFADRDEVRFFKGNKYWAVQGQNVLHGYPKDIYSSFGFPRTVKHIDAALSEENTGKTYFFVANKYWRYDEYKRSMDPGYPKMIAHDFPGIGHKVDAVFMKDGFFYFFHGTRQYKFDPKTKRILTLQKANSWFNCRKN
Procedure: (§1) Several compounds and salts were analyzed in an in vitro assay to determine their ability to inhibit the MMP cleavage of peptide substrates. Inhibition constant (Ki) were calculated from the assayed compound-MMP interactions.
(§2) Human recombinant MMP-1, MMP-2, MMP-9, MMP-13, and MMP-14 were used in this assay. All enzymes were prepared in Assignee's laboratories following usual laboratory procedures. Protocols for the preparation and use of these enzymes are available in the scientific literature. See, e.g., Enzyme Nomenclature (Academic Press, San Diego, Calif., 1992) (and the citations therein). See also, Frije et al., J. Biol. Chem., 26(24), 16766-73 (1994).
The MMP-1 proenzyme was purified from the spent media of MMP-1-transfected HT-1080 cells provided by Dr. Harold Welgus of Washington University (St. Louis, Mo.). The protein was purified on a zinc chelating column.
(§3) All MMPs were activated using 4-aminophenylmercuric acetate (“APMA”, Sigma Chemical, St. Louis, Mo.) or trypsin. MMP-9 also was activated using human recombinant MMP-3 (purified in Assignee's laboratory following standard cloning and purification techniques).
(§4) The following fluorogenic, methoxycoumarin-containing polypeptide substrate (I) was used in the MMP inhibition assays: MCA-ArgProLeuGlyLeuDpaAlaArgGluArgNH2 (I) “MCA” is 7-methoxycoumarin-4-yl acetyl. Substrate (I) was prepared Assignee's laboratory. In the absence of MMP inhibitory activity, the substrate is cleaved at the Gly-Leu peptide bond. This cleavage separates the highly fluorogenic peptide from the 2,4-dinitrophenyl quencher, thus resulting in increase of fluorescent intensity.
(§5) The stock solutions of the assayed compounds and salts were prepared in […] (DMSO). These stock solutions were diluted in Buffer A (100 mM Tris-HCl, 100 mM NaCl, 10 mM CaCl2, 0.05% polyoxyethylene 23 lauryl ether, pH 7.5) to obtain solutions with different compound concentrations, i.e., assay solutions with different concentrations of the assayed […] compound. The experiment controls contained the same amount of Buffer A/DMSO as the assayed sample, but contained none of the tested compound or salt.
(§6) The assays from which the Ki determinations were made were performed as follows. The assayed compound samples were incubated in separate wells of untreated white polystyrene plates (Nunc Nalgene International, Rochester, N.Y.), and analyzed on a Tecan SpectraFlour Plus plate reader. The excitation wavelength was 330 nm, and the emission wavelength—420 nm. All samples (assayed compounds and controls) were incubated in separate plate wells at room temperature for 1 hr in the presence of 4 μM of MMP substrate (I). In the absence of MMP inhibitory activity, substrate (I) was cleaved at the Gly-Leu bond resulting in an increase of relative fluorescence. Inhibition was observed as a reduced rate of this increase in relative fluorescence. […] This protocol is a modification of method by Knight et al., FEBS Lett., 296(3), 263-266 (1992). Apparent inhibitory constants were determined by non-linear regression of reaction velocity as a function of inhibitor and enzyme concentration using Morrison's equation, as described by Kuzmic, Anal. Biochem. 286, 45-50 (2000). Modifications were made in the non-linear regression method to allow a common control reaction rate and effective enzyme concentration to be shared between all dose-response relationships on a given assay plate. Since the substrate concentration was chosen to be at or below the Km, the apparent Ki's from this analysis were reported as Ki's without correction for the influence of substrate.
(§7) The above protocols were used to determine Ki constants for the compounds in Examples 2-35 above. All Ki values in Table 1 are given in nM units.

Human recombinant MMP-2 = target: T2, Human recombinant MMP-2 (Homo sapiens, UniProt P08253)
T2 construct: made in house; host or cells: MMP-2-transfected p2AHT2 cells
T2 sequence (P08253 110-660): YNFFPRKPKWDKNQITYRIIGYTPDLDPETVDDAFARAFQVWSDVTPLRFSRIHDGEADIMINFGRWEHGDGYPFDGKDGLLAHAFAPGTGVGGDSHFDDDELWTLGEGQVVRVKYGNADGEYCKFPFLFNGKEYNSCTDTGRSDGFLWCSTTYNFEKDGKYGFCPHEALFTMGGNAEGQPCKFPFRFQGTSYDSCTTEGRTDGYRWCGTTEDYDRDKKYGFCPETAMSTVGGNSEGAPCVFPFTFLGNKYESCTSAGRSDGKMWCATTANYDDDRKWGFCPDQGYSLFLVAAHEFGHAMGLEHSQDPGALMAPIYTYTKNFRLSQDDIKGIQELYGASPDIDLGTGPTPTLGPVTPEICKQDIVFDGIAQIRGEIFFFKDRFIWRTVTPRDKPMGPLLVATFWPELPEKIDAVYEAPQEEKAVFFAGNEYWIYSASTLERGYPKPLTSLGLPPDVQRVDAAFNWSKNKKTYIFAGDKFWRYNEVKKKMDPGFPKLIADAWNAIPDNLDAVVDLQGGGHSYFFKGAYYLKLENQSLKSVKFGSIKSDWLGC
Procedure: as §1, §2
The MMP-2 proenzyme was purified by gelatin Sepharose chromatography from MMP-2-transfected p2AHT2 cells provided by Dr. Gregory Goldberg of Washington University (St. Louis, Mo.).
as §3, §4, §5, §6, §7

Human recombinant MMP-9 = target: T3, Human recombinant MMP-9 (Homo sapiens, UniProt P14780)
T3 construct: made in house; host or cells: MMP-9-transfected HT1080 cells (spent media)
Procedure: as §1, §2
The MMP-9 proenzyme was purified by gelatin Sepharose chromatography from spent media of MMP-9-transfected HT1080 cells provided by Dr. Howard Welgus of Washington University (St. Louis, Mo.).
as §3, §4, §5, §6, §7

Human recombinant MMP-14 = target: T4, Human recombinant MMP-14 (Homo sapiens, UniProt P50281)
T4 construct: The catalytic domain enzyme was expressed in E. coli inclusion bodies, solubilized in urea; made in house
Procedure: as §1, §2
The MMP-14 full length cDNA was provided by Dr. Gregory Goldberg of Washington University (St. Louis, Mo.). The catalytic domain enzyme was expressed in E. coli inclusion bodies, solubilized in urea, purified on a preparative […] reverse phase HPLC column, and then refolded in the presence of zinc acetate and purified for use.
as §3, §4, §5, §6, §7

T3 sequence (P14780 107-707 limits assumed): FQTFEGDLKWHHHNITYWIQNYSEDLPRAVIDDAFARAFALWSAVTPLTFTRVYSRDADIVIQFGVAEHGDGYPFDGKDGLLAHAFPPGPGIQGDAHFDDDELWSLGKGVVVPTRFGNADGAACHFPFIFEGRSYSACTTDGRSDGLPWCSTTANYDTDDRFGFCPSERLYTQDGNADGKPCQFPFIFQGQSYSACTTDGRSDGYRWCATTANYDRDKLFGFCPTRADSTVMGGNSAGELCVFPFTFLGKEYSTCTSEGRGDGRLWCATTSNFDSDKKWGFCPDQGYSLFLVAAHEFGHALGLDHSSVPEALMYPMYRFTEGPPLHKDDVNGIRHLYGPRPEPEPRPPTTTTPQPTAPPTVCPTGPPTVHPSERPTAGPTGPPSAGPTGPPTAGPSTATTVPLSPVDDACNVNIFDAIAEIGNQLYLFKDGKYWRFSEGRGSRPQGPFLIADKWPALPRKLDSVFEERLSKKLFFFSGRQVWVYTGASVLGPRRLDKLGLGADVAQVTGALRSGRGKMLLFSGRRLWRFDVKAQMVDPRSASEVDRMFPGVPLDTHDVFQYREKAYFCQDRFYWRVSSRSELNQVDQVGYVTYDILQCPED

Ki (Human recombinant MMP-1) | Ki (Human recombinant MMP-2) | Ki (Human recombinant MMP-9) | Ki (Human recombinant MMP-14) | SMILES
4720 nM | 0.0708 nM | 0.258 nM | 523 nM | O=C(NO)C1(S(=O)(=O)c2ccc(-c3ccc(CCC(F)(F)C(F)(F)F)cn3)cc2)CCOCC1 [Example 36]
1450 nM | 0.089 nM | 3.51 nM | 632 nM | CCOCCOc1ccc(-c2ccc(S(=O)(=O)C3(C(=O)NO)CCOCC3)cc2)cc1 [Example 37]
650 nM | 0.037 nM | 0.126 nM | 446 nM | O=C(NO)C1(S(=O)(=O)c2ccc(-c3ccc(OC(F)(F)C(F)F)cc3)cc2)CCN(CCl)CC1 [Example 38]
335 nM | 0.009 nM | 0.045 nM | 185 nM | COCCN1CCC(C(=O)NO)(S(=O)(=O)c2ccc(-c3ccc(OC(F)(F)C(F)F)cc3)cc2)CC1 [Example 39]
508 nM | 0.074 nM | 0.102 nM | 292 nM | O=C(NO)C1(S(=O)(=O)c2ccc(-c3ccc(OC(F)(F)C(F)F)cc3)cc2)CCN(C2CC2)CC1 [Example 40]
5110 nM | 0.375 nM | 0.937 nM | 1140 nM | O=C(NO)C1(S(=O)(=O)c2ccc(-c3ccc(CCC(F)(F)C(F)(F)F)cc3)cc2)CCOCC1 [Example 41]
2710 nM | 0.339 nM | 0.642 nM | 800 nM | O=C(NO)C1(S(=O)(=O)c2ccc(-c3ccc(CCCC(F)(F)F)cc3)cc2)CCOCC1 [Example 42]
6870 nM | 0.29 nM | 0.43 nM | 1590 nM | COCCN1CCC(C(=O)NO)(S(=O)(=O)c2ccc(-c3ccc(CCCC(F)(F)F)cc3)cc2)CC1 [Example 43]
8690 nM | 0.48 nM | 0.68 nM | 2160 nM | O=C(NO)C1(S(=O)(=O)c2ccc(-c3ccc(CCCC(F)(F)F)cc3)cc2)CCN(C2CC2)CC1 [Example 44]
> 10000 nM | 0.55 nM | 1.16 nM | 1730 nM | O=C(NO)C1(S(=O)(=O)c2ccc(-c3ccc(CCC(F)(F)C(F)(F)F)cc3)cc2)CCN(C2CC2)CC1 [Example 45]
> 10000 nM | 0.21 nM | 0.38 nM | 1860 nM | COCCN1CCC(C(=O)NO)(S(=O)(=O)c2ccc(-c3ccc(CCC(F)(F)C(F)(F)F)cc3)cc2)CC1 [Example 46]
> 10000 nM | 1.17 nM | 2.8 nM | 5260 nM | COCCC(C(=O)NO)S(=O)(=O)c1ccc(-c2ccc(CCCC(F)(F)F)cc2)cc1 (centres unmarked) [Example 47]
> 10000 nM | 1.84 nM | 3.54 nM | 8450 nM | CC(C)(C)N1CCC(C(=O)NO)(S(=O)(=O)c2ccc(-c3ccc(CCCC(F)(F)F)cc3)cc2)CC1 [Example 48]
> 10000 nM | 2.36 nM | 0.88 nM | 3620 nM | O=C(NO)C1(S(=O)(=O)c2ccc(-c3cnc(CCC4CC4)cn3)cc2)CCOCC1 [Example 49]
7880 nM | 0.19 nM | 0.22 nM | 1190 nM | O=C(NO)C1(S(=O)(=O)c2ccc(-c3ccc(CCC(F)(F)C(F)(F)F)cn3)cc2)CCN(C2CC2)CC1 [Example 50]
9600 nM | 0.16 nM | 0.22 nM | 1890 nM | O=C(NO)C1(S(=O)(=O)c2ccc(-c3ccc(CCCC(F)(F)F)cn3)cc2)CCN(C2CC2)CC1 [Example 51]
> 10000 nM | 0.21 nM | 0.58 nM | 2580 nM | CCN1CCC(C(=O)NO)(S(=O)(=O)c2ccc(-c3ccc(CCC(F)(F)C(F)(F)F)cn3)cc2)CC1 [Example 52]
> 10000 nM | 0.46 nM | 1 nM | 3960 nM | CCN1CCC(C(=O)NO)(S(=O)(=O)c2ccc(-c3ccc(CCCC(F)(F)F)cn3)cc2)CC1 [Example 53]
6370 nM | 0.12 nM | 0.25 nM | 1110 nM | COCCN1CCC(C(=O)NO)(S(=O)(=O)c2ccc(-c3ccc(CCCC(F)(F)F)cn3)cc2)CC1 [Example 54]
> 10000 nM | 0.586 nM | 0.347 nM | 2560 nM | O=C(NO)C1(S(=O)(=O)c2ccc(-c3cnc(CCC(F)(F)C(F)(F)F)cn3)cc2)CCOCC1 [Example 55]
2120 nM | 0.15 nM | 0.38 nM | 453 nM | O=C(NO)C1(S(=O)(=O)c2ccc(-c3ccc(CCCC(F)F)cc3)cc2)CCOCC1 [Example 57]
> 10000 nM | 2.02 nM | 1.67 nM | > 10000 nM | O=C(NO)C1(S(=O)(=O)c2ccc(-c3cnc(CCCC(F)(F)F)cn3)cc2)CCOCC1 [Example 58]
2170 nM | 0.11 nM | 0.16 nM | 390 nM | CC(F)(F)CCc1ccc(-c2ccc(S(=O)(=O)C3(C(=O)NO)CCN(C4CC4)CC3)cc2)cc1 [Example 59]
> 10000 nM | 0.463 nM | 0.623 nM | 1880 nM | CC(F)(F)CCc1cnc(-c2ccc(S(=O)(=O)C3(C(=O)NO)CCOCC3)cc2)cn1 [Example 60]
3040 nM | 0.11 nM | 0.26 nM | 570 nM | CCN1CCC(C(=O)NO)(S(=O)(=O)c2ccc(-c3ccc(CCC(C)(F)F)cc3)cc2)CC1 [Example 61]
> 10000 nM | 0.88 nM | 1.83 nM | 2930 nM | O=C(NO)C1(S(=O)(=O)c2ccc(-c3cnc(CCC(F)(F)F)cn3)cc2)CCOCC1 [Example 62]
